Experimental data as given in PubChem BioAssay (NCI).
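Step 1: Grow cells in 96-well plates. Step 2: Expose to compound for 48 hours at 5 concentrations. Step 3: Interpolate endpoints linearly; if unreached, use highest concentration. GI50 = concentration required for 50% inhibition of growth. At the TGI there is no net growth.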

Key:
Assay in all cases: NCI tumour cell line growth inhibition, 48 h
786-0 renal = tested on: 786-0 renal
A498 renal = tested on: A498 renal
A549 NSCLC = tested on: A549 NSCLC
ACHN renal = tested on: ACHN renal
BT-549 breast = tested on: BT-549 breast
CAKI-1 renal = tested on: CAKI-1 renal
CCRF-CEM leukemia = tested on: CCRF-CEM leukemia
COLO 205 colon = tested on: COLO 205 colon
DU-145 prostate = tested on: DU-145 prostate
EKVX NSCLC = tested on: EKVX NSCLC
HCC-2998 colon = tested on: HCC-2998 colon
HCT-116 colon = tested on: HCT-116 colon
HCT-15 colon = tested on: HCT-15 colon
HL-60(TB) leukemia = tested on: HL-60(TB) leukemia
HOP-62 NSCLC = tested on: HOP-62 NSCLC
HOP-92 NSCLC = tested on: HOP-92 NSCLC
HS 578T breast = tested on: HS 578T breast
HT29 colon = tested on: HT29 colon
IGROV1 ovarian = tested on: IGROV1 ovarian
K-562 leukemia = tested on: K-562 leukemia
KM12 colon = tested on: KM12 colon
LOX IMVI melanoma = tested on: LOX IMVI melanoma
M14 melanoma = tested on: M14 melanoma
MALME-3M melanoma = tested on: MALME-3M melanoma
MCF7 breast = tested on: MCF7 breast
MDA-MB-231 breast = tested on: MDA-MB-231 breast
MDA-MB-435 = tested on: MDA-MB-435
MDA-MB-468 breast = tested on: MDA-MB-468 breast
MOLT-4 leukemia = tested on: MOLT-4 leukemia
NCI-H226 lung = tested on: NCI-H226 lung
NCI-H23 lung = tested on: NCI-H23 lung
NCI-H460 lung = tested on: NCI-H460 lung
NCI-H522 lung = tested on: NCI-H522 lung
NCI/ADR-RES ovarian = tested on: NCI/ADR-RES ovarian
OVCAR-3 ovarian = tested on: OVCAR-3 ovarian
OVCAR-4 ovarian = tested on: OVCAR-4 ovarian
OVCAR-5 ovarian = tested on: OVCAR-5 ovarian
OVCAR-8 ovarian = tested on: OVCAR-8 ovarian
PC-3 prostate = tested on: PC-3 prostate
RPMI-8226 leukemia = tested on: RPMI-8226 leukemia
RXF 393 renal = tested on: RXF 393 renal
SF-268 CNS = tested on: SF-268 CNS
SF-295 CNS = tested on: SF-295 CNS
SF-539 CNS = tested on: SF-539 CNS
SK-MEL-2 melanoma = tested on: SK-MEL-2 melanoma
SK-MEL-28 melanoma = tested on: SK-MEL-28 melanoma
SK-MEL-5 melanoma = tested on: SK-MEL-5 melanoma
SK-OV-3 ovarian = tested on: SK-OV-3 ovarian
SN12C renal = tested on: SN12C renal
SNB-19 CNS = tested on: SNB-19 CNS
SNB-75 CNS = tested on: SNB-75 CNS
SR leukemia = tested on: SR leukemia
SW-620 colon = tested on: SW-620 colon
T-47D breast = tested on: T-47D breast
TK-10 renal = tested on: TK-10 renal
U251 CNS = tested on: U251 CNS
UACC-257 melanoma = tested on: UACC-257 melanoma
UACC-62 melanoma = tested on: UACC-62 melanoma
UO-31 renal = tested on: UO-31 renal

How did the GI50 (786-0 renal) turn out when `CNS(=O)(=O)N1CCc2c(Br)c3c(c(OC)c2C1CCc1ccccc1)OCO3` (stereo not drawn) was run?
Its GI50 is 19.6 µM.

And the TGI (786-0 renal)?
The TGI was 62.5 µM.

What about the GI50 (A498 renal) of the same compound?
Its GI50 is 15.7 µM.

What about the TGI (A498 renal) of the same compound?
Its TGI is 34.6 µM.

And the GI50 (A549 NSCLC)?
Its GI50 is 14.7 µM.

And the TGI (A549 NSCLC)?
Its TGI is over 100 µM.

And the GI50 (ACHN renal)?
Its GI50 is 20.3 µM.

And the TGI (ACHN renal)?
Its TGI is 92.2 µM.

What about the GI50 (BT-549 breast) of the same compound?
The GI50 was 15.4 µM.

And the TGI (BT-549 breast)?
Its TGI is 30 µM.

And the GI50 (CAKI-1 renal)?
Its GI50 is 7.25 µM.

What about the TGI (CAKI-1 renal) of the same compound?
The TGI was over 100 µM.

And the GI50 (CCRF-CEM leukemia)?
The GI50 was 24.3 µM.

And the TGI (CCRF-CEM leukemia)?
Its TGI is over 100 µM.

And the GI50 (COLO 205 colon)?
The GI50 was 14.9 µM.

What about the TGI (COLO 205 colon) of the same compound?
Its TGI is 30.7 µM.

And the GI50 (DU-145 prostate)?
The GI50 was 29.2 µM.

What about the TGI (DU-145 prostate) of the same compound?
The TGI was over 100 µM.

And the GI50 (EKVX NSCLC)?
The GI50 was 14.1 µM.

And the TGI (EKVX NSCLC)?
Its TGI is over 100 µM.

What about the GI50 (HCC-2998 colon) of the same compound?
Its GI50 is 18.4 µM.

And the TGI (HCC-2998 colon)?
The TGI was 75.7 µM.

What about the GI50 (HCT-116 colon) of the same compound?
Its GI50 is 6.64 µM.

And the TGI (HCT-116 colon)?
Its TGI is 26.3 µM.

What about the GI50 (HCT-15 colon) of the same compound?
Its GI50 is 23.1 µM.

What about the TGI (HCT-15 colon) of the same compound?
Its TGI is over 100 µM.

And the GI50 (HL-60(TB) leukemia)?
Its GI50 is 22.9 µM.

And the TGI (HL-60(TB) leukemia)?
The TGI was 61.9 µM.

What about the GI50 (HOP-62 NSCLC) of the same compound?
The GI50 was 13.5 µM.

What about the TGI (HOP-62 NSCLC) of the same compound?
Its TGI is 37.5 µM.

What about the GI50 (HOP-92 NSCLC) of the same compound?
Its GI50 is 11.4 µM.

What about the TGI (HOP-92 NSCLC) of the same compound?
Its TGI is 33.4 µM.

And the GI50 (HS 578T breast)?
The GI50 was 12.7 µM.

And the TGI (HS 578T breast)?
The TGI was 42 µM.

And the GI50 (HT29 colon)?
The GI50 was 18.7 µM.

What about the TGI (HT29 colon) of the same compound?
The TGI was over 100 µM.

What about the GI50 (IGROV1 ovarian) of the same compound?
The GI50 was 14.1 µM.

And the TGI (IGROV1 ovarian)?
Its TGI is 81.6 µM.

And the GI50 (K-562 leukemia)?
The GI50 was 17.3 µM.

What about the TGI (K-562 leukemia) of the same compound?
The TGI was over 100 µM.

And the GI50 (KM12 colon)?
The GI50 was 19.4 µM.

And the TGI (KM12 colon)?
The TGI was 78.1 µM.

What about the GI50 (LOX IMVI melanoma) of the same compound?
The GI50 was 10.1 µM.

What about the TGI (LOX IMVI melanoma) of the same compound?
Its TGI is 23.5 µM.

And the GI50 (M14 melanoma)?
The GI50 was 12.2 µM.

And the TGI (M14 melanoma)?
Its TGI is 34 µM.

And the GI50 (MALME-3M melanoma)?
Its GI50 is 17.8 µM.

And the TGI (MALME-3M melanoma)?
Its TGI is 34.8 µM.

And the GI50 (MCF7 breast)?
Its GI50 is 16.6 µM.

And the TGI (MCF7 breast)?
Its TGI is 90.7 µM.

What about the GI50 (MDA-MB-231 breast) of the same compound?
Its GI50 is 7.33 µM.

And the TGI (MDA-MB-231 breast)?
The TGI was 22.3 µM.

What about the GI50 (MDA-MB-435) of the same compound?
Its GI50 is 12.5 µM.

What about the TGI (MDA-MB-435) of the same compound?
The TGI was 31.3 µM.

And the GI50 (MDA-MB-468 breast)?
Its GI50 is 9.95 µM.

And the TGI (MDA-MB-468 breast)?
The TGI was 35.5 µM.

What about the GI50 (MOLT-4 leukemia) of the same compound?
Its GI50 is 10.4 µM.

And the TGI (MOLT-4 leukemia)?
Its TGI is over 100 µM.

What about the GI50 (NCI-H226 lung) of the same compound?
Its GI50 is 10.8 µM.

And the TGI (NCI-H226 lung)?
The TGI was 25.8 µM.

What about the GI50 (NCI-H23 lung) of the same compound?
The GI50 was 17 µM.

What about the TGI (NCI-H23 lung) of the same compound?
Its TGI is 72.4 µM.

And the GI50 (NCI-H460 lung)?
The GI50 was 13.7 µM.

What about the TGI (NCI-H460 lung) of the same compound?
Its TGI is 30.1 µM.

What about the GI50 (NCI-H522 lung) of the same compound?
Its GI50 is 13 µM.

And the TGI (NCI-H522 lung)?
Its TGI is 38.7 µM.

What about the GI50 (NCI/ADR-RES ovarian) of the same compound?
The GI50 was 14 µM.

What about the TGI (NCI/ADR-RES ovarian) of the same compound?
The TGI was 86.9 µM.

What about the GI50 (OVCAR-3 ovarian) of the same compound?
Its GI50 is 13.7 µM.

What about the TGI (OVCAR-3 ovarian) of the same compound?
Its TGI is 29.9 µM.

And the GI50 (OVCAR-4 ovarian)?
Its GI50 is 14.7 µM.

What about the TGI (OVCAR-4 ovarian) of the same compound?
The TGI was 85 µM.

What about the GI50 (OVCAR-5 ovarian) of the same compound?
Its GI50 is 14.1 µM.

And the TGI (OVCAR-5 ovarian)?
Its TGI is 33.8 µM.

What about the GI50 (OVCAR-8 ovarian) of the same compound?
Its GI50 is 24.6 µM.

What about the TGI (OVCAR-8 ovarian) of the same compound?
Its TGI is over 100 µM.

What about the GI50 (PC-3 prostate) of the same compound?
Its GI50 is 5.67 µM.

And the TGI (PC-3 prostate)?
Its TGI is over 100 µM.

And the GI50 (RPMI-8226 leukemia)?
Its GI50 is 12.4 µM.

And the TGI (RPMI-8226 leukemia)?
The TGI was over 100 µM.

What about the GI50 (RXF 393 renal) of the same compound?
Its GI50 is 13.5 µM.

What about the TGI (RXF 393 renal) of the same compound?
The TGI was 31.4 µM.

And the GI50 (SF-268 CNS)?
The GI50 was 16.8 µM.

And the TGI (SF-268 CNS)?
Its TGI is over 100 µM.

What about the GI50 (SF-295 CNS) of the same compound?
The GI50 was 11.1 µM.

What about the TGI (SF-295 CNS) of the same compound?
The TGI was 31.8 µM.

What about the GI50 (SF-539 CNS) of the same compound?
The GI50 was 15.2 µM.

What about the TGI (SF-539 CNS) of the same compound?
Its TGI is 30.1 µM.

And the GI50 (SK-MEL-2 melanoma)?
Its GI50 is 14.5 µM.

And the TGI (SK-MEL-2 melanoma)?
Its TGI is 30.7 µM.

And the GI50 (SK-MEL-28 melanoma)?
The GI50 was 15.7 µM.

And the TGI (SK-MEL-28 melanoma)?
The TGI was 31.1 µM.

And the GI50 (SK-MEL-5 melanoma)?
The GI50 was 15.4 µM.

What about the TGI (SK-MEL-5 melanoma) of the same compound?
Its TGI is 28.8 µM.

What about the GI50 (SK-OV-3 ovarian) of the same compound?
The GI50 was 20.9 µM.

What about the TGI (SK-OV-3 ovarian) of the same compound?
The TGI was 73.6 µM.

What about the GI50 (SN12C renal) of the same compound?
The GI50 was 11.6 µM.

What about the TGI (SN12C renal) of the same compound?
The TGI was 24.7 µM.

What about the GI50 (SNB-19 CNS) of the same compound?
The GI50 was 23.8 µM.

And the TGI (SNB-19 CNS)?
The TGI was over 100 µM.

And the GI50 (SNB-75 CNS)?
Its GI50 is 4.24 µM.

And the TGI (SNB-75 CNS)?
Its TGI is 34.5 µM.

And the GI50 (SR leukemia)?
The GI50 was 24 µM.

And the TGI (SR leukemia)?
Its TGI is over 100 µM.

What about the GI50 (SW-620 colon) of the same compound?
The GI50 was 21.8 µM.

And the TGI (SW-620 colon)?
The TGI was over 100 µM.

What about the GI50 (T-47D breast) of the same compound?
The GI50 was 9.48 µM.

What about the TGI (T-47D breast) of the same compound?
The TGI was 67.4 µM.

And the GI50 (TK-10 renal)?
The GI50 was 34.4 µM.

What about the TGI (TK-10 renal) of the same compound?
The TGI was over 100 µM.

What about the GI50 (U251 CNS) of the same compound?
Its GI50 is 15.6 µM.

And the TGI (U251 CNS)?
Its TGI is 35.6 µM.

What about the GI50 (UACC-257 melanoma) of the same compound?
The GI50 was 20.9 µM.

And the TGI (UACC-257 melanoma)?
The TGI was 51.5 µM.

And the GI50 (UACC-62 melanoma)?
Its GI50 is 6.4 µM.

What about the TGI (UACC-62 melanoma) of the same compound?
Its TGI is 21.4 µM.

What about the GI50 (UO-31 renal) of the same compound?
Its GI50 is 10.2 µM.

And the TGI (UO-31 renal)?
The TGI was 69.1 µM.
